# Measurements as given in patent US10669240B2, “5-substituted indazole-3-carboxamides and preparation and use thereof” (Samumed, LLC, priority 2014, dated 2020).
# Target: DYRK1A (Homo sapiens (Human), UniProt Q13627)
# Experiment: DYRK1A activity Tau assay: pSer396 Tau in SH-SY5Y cells by ELISA / western blot
# Assay type: cell-based
# Conditions: overnight (16-18 h) exposure
# From the text: In another example, in vitro assays for DYRK1A biological activity may be used, e.g. regulation of microtubule-associated protein tau (MAPT/Tau) phosphorylation in neuronal cell line such as the human SH-SY5Y neuroblastoma cell line. Assays for DYRK1a-regulated level of phosphorylation can include monitoring levels of basal pSer396 Tau, which can be measured, for example, by serial dilutions of a candidate inhibitor composition using a ten micromolar top concentration and detected by ELISA or Western Blotting. An exemplary assay for DYRK-1a-regulated phosphorylation uses the SH-SY5Y cells cultured in a 96 well plate format for a period of time sufficient to stabilize microtubules and Tau phosphorylation, usually at least 2 days, then treated with a 1/3 serial dilution of compounds overnight and lysed. The cell lysate is resolved by SDS PAGE, then transferred to nitrocellulose and probed with an antibody specific for pSer396 Tau.
# In a further example, the activity of a candidate compound can be measured by ELISA by adding the lysate mentioned above onto total Tau-coated plates and detected with a specific pSer396 antibody.
row,SMILES,EC50
1,"CN1CCC(N(C)C(=O)c2n[nH]c3ccc(-c4cccnc4)cc23)CC1 [Compound 1337, N-Methyl-N-(1-methylpiperidin-4-yl)-5-(pyridin-3-yl)-1H-indazole-3-carboxamide]",2500 nM
2,"CN1CCC(NC(=O)c2n[nH]c3ccc(-c4cccc(F)c4)cc23)CC1 [Compound 15, 5-(3-Fluorophenyl)-N-(1-methylpiperidin-4-yl)-1H-indazole-3-carboxamide]",324 nM
3,"Cc1ncc(-c2ccc3[nH]nc(C(=O)NC4CCN(CC(C)(C)F)CC4)c3c2)cn1 [Compound 1322, N-(1-(2-Fluoro-2-methylpropyl)piperidin-4-yl)-5-(2-methylpyrimidin-5-yl)-1H-indazole-3-carboxamide]",534 nM
4,"CN1CCC2(CC1)CC(NC(=O)c1n[nH]c3ccc(-c4cncc(F)c4)cc13)C2 [Compound 1277, 5-(5-Fluoropyridin-3-yl)-N-(7-methyl-7-azaspiro[3.5]nonan-2-yl)-1H-indazole-3-carboxamide]",11 nM
5,"O=C(Nc1cc(C(F)(F)F)ccn1)c1n[nH]c2ccc(-c3cncc(CN4CCCCC4)c3)cc12 [Compound 60, 5-(5-(Piperidin-1-ylmethyl)pyridin-3-yl)-N-(4-(trifluoromethyl)pyridin-2-yl)-1H-indazole-3-carboxamide]",20 nM
6,"O=C(NC1Cc2ccccc2C1)c1n[nH]c2ccc(-c3cncc(CN4CCCC4)c3)cc12 [Compound 25, N-(2,3-Dihydro-1H-inden-2-yl)-5-(5-(pyrrolidin-1-ylmethyl)pyridin-3-yl)-1H-indazole-3-carboxamide]",28 nM
7,"O=C(Nc1ccc(F)cn1)c1n[nH]c2ccc(-c3cncc(CN4CCCCC4)c3)cc12 [Compound 57, N-(5-Fluoropyridin-2-yl)-5-(5-(piperidin-1-ylmethyl)pyridin-3-yl)-1H-indazole-3-carboxamide]",2 nM
8,"CN1CC2(CCC(NC(=O)c3n[nH]c4ccc(-c5cncc(F)c5)cc34)CC2)C1 [Compound 1289, 5-(5-Fluoropyridin-3-yl)-N-(2-methyl-2-azaspiro[3.5]nonan-7-yl)-1H-indazole-3-carboxamide]",29 nM
9,"O=C(NC1CCN(CC2CC2)CC1)c1n[nH]c2ccc(-c3cncc(F)c3)cc12 [Compound 1312, N-(1-(Cyclopropylmethyl)piperidin-4-yl)-5-(5-fluoropyridin-3-yl)-1H-indazole-3-carboxamide]",33 nM
10,"CC(C)(C)NC(=O)c1n[nH]c2ccc(-c3cncc(CN4CCCCC4)c3)cc12 [Compound 1202, N-(tert-Butyl)-5-(5-(piperidin-1-ylmethyl)pyridin-3-yl)-1H-indazole-3-carboxamide]",144 nM
11,"CC(C)NC(=O)c1n[nH]c2ccc(-c3cccnc3)cc12 [Compound 7, N-Isopropyl-5-(pyridin-3-yl)-1H-indazole-3-carboxamide]",55 nM
12,"CC(C)CN1CCC(NC(=O)c2n[nH]c3ccc(-c4cncc(Cl)c4)cc23)CC1 [Compound 1307, 5-(5-Chloropyridin-3-yl)-N-(1-isobutylpiperidin-4-yl)-1H-indazole-3-carboxamide]",47 nM
13,"CC(F)(F)CN1CCC(NC(=O)c2n[nH]c3ccc(-c4cncc(F)c4)cc23)CC1 [Compound 1301, N-(1-(2,2-Difluoropropyl)piperidin-4-yl)-5-(5-fluoropyridin-3-yl)-1H-indazole-3-carboxamide]",23 nM
14,"CC(C)(C)NC(=O)c1n[nH]c2ccc(-c3cncc(CN4CC(F)(F)C4)c3)cc12 [Compound 1210, N-(tert-Butyl)-5-(5-((3,3-difluoroazetidin-1-yl)methyl)pyridin-3-yl)-1H-indazole-3-carboxamide]",128 nM
15,"CC(C)(C)NC(=O)c1n[nH]c2ccc(-c3cccnc3)cc12 [Compound 1253, N-(tert-Butyl)-5-(pyridin-3-yl)-1H-indazole-3-carboxamide]",150 nM
16,"O=C(NC1(c2ccccc2)CC1)c1n[nH]c2ccc(-c3cccnc3)cc12 [Compound 32, N-(1-Phenylcyclopropyl)-5-(pyridin-3-yl)-1H-indazole-3-carboxamide]",279 nM
17,"CN1CCC(NC(=O)c2n[nH]c3cc(F)c(-c4cccnc4)cc23)CC1 [Compound 1290, 6-Fluoro-N-(1-methylpiperidin-4-yl)-5-(pyridin-3-yl)-1H-indazole-3-carboxamide]",21 nM
18,"CC(C)N1CCC(NC(=O)c2n[nH]c3ccc(-c4cccc(F)c4F)cc23)CC1 [Compound 92, 5-(2,3-Difluorophenyl)-N-(1-isopropylpiperidin-4-yl)-1H-indazole-3-carboxamide]",100 nM
19,"O=C(Nc1cccc(C(F)(F)F)n1)c1n[nH]c2ccc(-c3cccnc3)cc12 [Compound 42, 5-(Pyridin-3-yl)-N-(6-(trifluoromethyl)pyridin-2-yl)-1H-indazole-3-carboxamide]",115 nM
20,"CC(C)(F)CN1CCC(NC(=O)c2n[nH]c3ccc(-c4ccc(F)nc4)cc23)CC1 [Compound 1321, N-(1-(2-Fluoro-2-methylpropyl)piperidin-4-yl)-5-(6-fluoropyridin-3-yl)-1H-indazole-3-carboxamide]",14 nM
21,"CN1CCC(NC(=O)c2n[nH]c3ccc(-c4ccc(F)cc4)cc23)CC1 [Compound 17, 5-(4-Fluorophenyl)-N-(1-methylpiperidin-4-yl)-1H-indazole-3-carboxamide]",9000 nM
22,"O=C(NC1CCN(CC(F)(F)F)CC1)c1n[nH]c2ccc(-c3cccnc3)cc12 [Compound 1182, 5-(Pyridin-3-yl)-N-(1-(2,2,2-trifluoroethyl)piperidin-4-yl)-1H-indazole-3-carboxamide]",8 nM
23,"CCN1CCC(NC(=O)c2n[nH]c3ccc(-c4cncc(Cl)c4)cc23)CC1 [Compound 1291, 5-(5-Chloropyridin-3-yl)-N-(1-ethylpiperidin-4-yl)-1H-indazole-3-carboxamide]",39 nM
24,"O=C(Nc1cnc(C(F)(F)F)nc1)c1n[nH]c2ccc(-c3cncc(CN4CCCCC4)c3)cc12 [Compound 1116, 5-(5-(Piperidin-1-ylmethyl)pyridin-3-yl)-N-(2-(trifluoromethyl)pyrimidin-5-yl)-1H-indazole-3-carboxamide]",1 nM
25,"O=C(Nc1ncc(F)cc1F)c1n[nH]c2ccc(-c3cccnc3)cc12 [Compound 46, N-(3,5-Difluoropyridin-2-yl)-5-(pyridin-3-yl)-1H-indazole-3-carboxamide]",4 nM
26,"CCN(CC)Cc1cncc(-c2ccc3[nH]nc(C(=O)NC(C)C)c3c2)c1 [Compound 1246, 5-(5-((Diethylamino)methyl)pyridin-3-yl)-N-isopropyl-1H-indazole-3-carboxamide]",45 nM
27,"O=C(Nc1ccnc(C(F)(F)F)c1)c1n[nH]c2ccc(-c3cncc(N4CCCC4)c3)cc12 [Compound 820, 5-(5-(Pyrrolidin-1-yl)pyridin-3-yl)-N-(2-(trifluoromethyl)pyridin-4-yl)-1H-indazole-3-carboxamide]",81 nM
28,"CC[C@@H](C)NC(=O)c1n[nH]c2ccc(-c3cncc(Cl)c3)cc12 [Compound 1256, (R)—N-(sec-butyl)-5-(5-chloropyridin-3-yl)-1H-indazole-3-carboxamide]",122 nM
29,"CC(C)CN1CCC(NC(=O)c2n[nH]c3cc(F)c(-c4cccnc4)cc23)CC1 [Compound 1308, 6-Fluoro-N-(1-isobutylpiperidin-4-yl)-5-(pyridin-3-yl)-1H-indazole-3-carboxamide]",17 nM
